In this assay the test system is HCT116 colorectal cancer cells. Briefly: Cisplatin sensitization assay (96 h cell viability MTS).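 Also: compound concentration needed to lower the Cisplatin-alone IC50 by a set fold.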 Type of assay: cell-based. Conditions: 96 h MTS, compound plus Cisplatin. The essentials: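 Viability is measured with MTS reagent, added after 96 h and developed for 1 h at 37° C. Beforehand, cells receive compound and cisplatin simultaneously in a concentration matrix of 2-fold serial dilutions starting at 10 μM final.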
On to `CC1(O)CCN(c2ccncc2NC(=O)c2c(N)nn3cc(Cl)cnc23)CC1` [I-N-66, 2-amino-6-chloro-N-(4-(4-hydroxy-4-methylpiperidin-1-yl)pyridin-3-yl)pyrazolo[1,5-a]pyrimidine-3-carboxamide], for which the “Cisplatin Sensitization Assay” value is on record as “+++ (Compounds with a Cisplatin sensitization value of <0.02 μM are marked with “+++.”)”.

`Nc1nn2cc(Cl)cnc2c1C(=O)Nc1cnccc1N1CCN(CC(F)(F)F)CC1` [I-N-67, 2-amino-6-chloro-N-(4-(4-(2,2,2-trifluoroethyl)piperazin-1-yl)pyridin-3-yl)pyrazolo[1,5-a]pyrimidine-3-carboxamide]: the “Cisplatin Sensitization Assay” value is recorded as “+++ (Compounds with a Cisplatin sensitization value of <0.02 μM are marked with “+++.”)”.

As for `Nc1nn2cc(Cl)cnc2c1C(=O)Nc1cnccc1N1CC[S+]([O-])CC1` [I-N-68, 2-amino-6-chloro-N-(4-(1-oxidothiomorpholino)pyridin-3-yl)pyrazolo[1,5-a]pyrimidine-3-carboxamide], the “Cisplatin Sensitization Assay” value was “+++ (Compounds with a Cisplatin sensitization value of <0.02 μM are marked with “+++.”)”.

Turning to `CC(C)(O)C1CCN(c2ccncc2NC(=O)c2c(N)nn3cc(Cl)cnc23)CC1` [I-N-69, 2-amino-6-chloro-N-(4-(4-(2-hydroxypropan-2-yl)piperidin-1-yl)pyridin-3-yl)pyrazolo[1,5-a]pyrimidine-3-carboxamide], the “Cisplatin Sensitization Assay” value is listed as “+++ (Compounds with a Cisplatin sensitization value of <0.02 μM are marked with “+++.”)”.

Regarding `Nc1nn2cc(Cl)cnc2c1C(=O)Nc1cnccc1N1CCNC(C(F)(F)F)C1` (centres unmarked) [I-N-70, 2-amino-6-chloro-N-(4-(3-(trifluoromethyl)piperazin-1-yl)pyridin-3-yl)pyrazolo[1,5-a]pyrimidine-3-carboxamide], the “Cisplatin Sensitization Assay” value is recorded as “++ (Compounds with a Cisplatin sensitization value >0.02 μM but <0.2 μM are marked with “++.”)”.

Turning to `Nc1nn2cc(Cl)cnc2c1C(=O)Nc1cnccc1N1CCN2CCC[C@H]2C1` [I-N-71, (S)-2-amino-6-chloro-N-(4-(hexahydropyrrolo[1,2-a]pyrazin-2(1H)-yl)pyridin-3-yl)pyrazolo[1,5-a]pyrimidine-3-carboxamide], the “Cisplatin Sensitization Assay” value is “+++ (Compounds with a Cisplatin sensitization value of <0.02 μM are marked with “+++.”)”.

On to `CC1CN(C)CCN1c1ccncc1NC(=O)c1c(N)nn2cc(Cl)cnc12` (centres unmarked) [I-N-72, 2-amino-6-chloro-N-(4-(2,4-dimethylpiperazin-1-yl)pyridin-3-yl)pyrazolo[1,5-a]pyrimidine-3-carboxamide], for which the “Cisplatin Sensitization Assay” value was “+++ (Compounds with a Cisplatin sensitization value of <0.02 μM are marked with “+++.”)”.

With `COC1CCN(c2ccncc2NC(=O)c2c(N)nn3cc(Cl)cnc23)CC1` [I-N-73, 2-amino-6-chloro-N-(4-(4-methoxypiperidin-1-yl)pyridin-3-yl)pyrazolo[1,5-a]pyrimidine-3-carboxamide], the “Cisplatin Sensitization Assay” value is listed as “+++ (Compounds with a Cisplatin sensitization value of <0.02 μM are marked with “+++.”)”.

With `COC(=O)C1CCN(c2ccncc2NC(=O)c2c(N)nn3cc(Cl)cnc23)CC1` [I-N-74, methyl-1-(3-(2-amino-6-chloropyrazolo[1,5-a]pyrimidine-3-carboxamido)pyridin-4-yl)piperidine-4-carboxylate], the “Cisplatin Sensitization Assay” value is on record as “+++ (Compounds with a Cisplatin sensitization value of <0.02 μM are marked with “+++.”)”.

`Nc1nn2cc(Cl)cnc2c1C(=O)Nc1cnccc1N1CCn2cncc2C1` [I-N-75, 2-amino-6-chloro-N-(4-(5,6-dihydroimidazo[1,5-a]pyrazin-7(8H)-yl)pyridin-3-yl)pyrazolo[1,5-a]pyrimidine-3-carboxamide]: the “Cisplatin Sensitization Assay” value is “+++ (Compounds with a Cisplatin sensitization value of <0.02 μM are marked with “+++.”)”.

As to `CN1CCN(c2ccncc2NC(=O)c2c(N)nn3cc(C(C)(C)C#N)cnc23)CC1` [I-N-76, 2-amino-6-(2-cyanopropan-2-yl)-N-(4-(4-methylpiperazin-1-yl)pyridin-3-yl)pyrazolo[1,5-a]pyrimidine-3-carboxamide], the “Cisplatin Sensitization Assay” value is given as “+++ (Compounds with a Cisplatin sensitization value of <0.02 μM are marked with “+++.”)”.

As to `N#CCc1cnc2c(C(=O)Nc3cnccc3N3CCCC3)c(N)nn2c1` [I-N-77, 2-amino-6-(cyanomethyl)-N-(4-(pyrrolidin-1-yl)pyridin-3-yl)pyrazolo[1,5-a]pyrimidine-3-carboxamide], the “Cisplatin Sensitization Assay” value is “+ (Compounds with a Cisplatin sensitization value >0.2 μM but <5 μM are marked with “+.”)”.

As for `N#CCc1cnc2c(C(=O)Nc3cnccc3N3CCCCCC3)c(N)nn2c1` [I-N-79, 2-amino-N-(4-(azepan-1-yl)pyridin-3-yl)-6-(cyanomethyl)pyrazolo[1,5-a]pyrimidine-3-carboxamide], the “Cisplatin Sensitization Assay” value is listed as “++ (Compounds with a Cisplatin sensitization value >0.02 μM but <0.2 μM are marked with “++.”)”.

Regarding `CN1CCN(c2c(F)cncc2NC(=O)c2c(N)nn3cc(CC#N)cnc23)CC1` [I-N-80, 2-amino-6-(cyanomethyl)-N-(5-fluoro-4-(4-methylpiperazin-1-yl)pyridin-3-yl)pyrazolo[1,5-a]pyrimidine-3-carboxamide], the “Cisplatin Sensitization Assay” value is “++ (Compounds with a Cisplatin sensitization value >0.02 μM but <0.2 μM are marked with “++.”)”.

On to `N#CCc1cnc2c(C(=O)Nc3cnccc3N3CCOCC3)c(N)nn2c1` [I-N-81, 2-amino-6-(cyanomethyl)-N-(4-morpholinopyridin-3-yl)pyrazolo[1,5-a]pyrimidine-3-carboxamide], for which the “Cisplatin Sensitization Assay” value is reported as “+++ (Compounds with a Cisplatin sensitization value of <0.02 μM are marked with “+++.”)”.

For `CN1CCN(c2ccncc2NC(=O)c2c(N)nn3cc(CC#N)cnc23)CC1` [I-N-82, 2-amino-6-(cyanomethyl)-N-(4-(4-methylpiperazin-1-yl)pyridin-3-yl)pyrazolo[1,5-a]pyrimidine-3-carboxamide], the “Cisplatin Sensitization Assay” value is “++ (Compounds with a Cisplatin sensitization value >0.02 μM but <0.2 μM are marked with “++.”)”.

For the compound `N#CCc1cnc2c(C(=O)Nc3cnccc3N3CCC(O)CC3)c(N)nn2c1` [I-N-83, 2-amino-6-(cyanomethyl)-N-(4-(4-hydroxypiperidin-1-yl)pyridin-3-yl)pyrazolo[1,5-a]pyrimidine-3-carboxamide], the “Cisplatin Sensitization Assay” value is “++ (Compounds with a Cisplatin sensitization value >0.02 μM but <0.2 μM are marked with “++.”)”.

Consider `N#CCc1cnc2c(C(=O)Nc3cnccc3N3CCCCC3)c(N)nn2c1` [I-N-84, 2-amino-6-(cyanomethyl)-N-(4-(piperidin-1-yl)pyridin-3-yl)pyrazolo[1,5-a]pyrimidine-3-carboxamide], for which the “Cisplatin Sensitization Assay” value is listed as “+++ (Compounds with a Cisplatin sensitization value of <0.02 μM are marked with “+++.”)”.

`CN1CCN(c2c(Cl)cncc2NC(=O)c2c(N)nn3cc(F)cnc23)CC1` [I-N-85, 2-amino-N-(5-chloro-4-(4-methylpiperazin-1-yl)pyridin-3-yl)-6-fluoropyrazolo[1,5-a]pyrimidine-3-carboxamide]: the “Cisplatin Sensitization Assay” value was “++ (Compounds with a Cisplatin sensitization value >0.02 μM but <0.2 μM are marked with “++.”)”.

For `Nc1nn2cc(Cl)cnc2c1C(=O)Nc1cnccc1N1CCC(N)CC1` [I-N-86, 2-amino-N-(4-(4-aminopiperidin-1-yl)pyridin-3-yl)-6-chloropyrazolo[1,5-a]pyrimidine-3-carboxamide], the “Cisplatin Sensitization Assay” value was “+++ (Compounds with a Cisplatin sensitization value of <0.02 μM are marked with “+++.”)”.

Source of the values: patent US10787452B2 (Vertex Pharmaceuticals Incorporated, priority 2012, dated 2020).
